{"source": "patent US12320799B2", "about": "“Methods of measuring signaling pathway activity for selection of therapeutic agents” (Celcuity Inc., priority 2017, dated 2025)", "key": {"EGF pathway": {"test_system": "EGF pathway", "experiment": "Pathway ultrasensitivity test (EC90/EC10 of activator agent), impedance biosensor", "format": "cell-based, human", "settings": "for EC90: read-out: EC90 Concentration", "source_text": "(§1) Biosensor and transducer: A 96-well impendence E-Plate (ACEA, San Diego, CA) was placed onto an xCELLigence RTCA MP Station impendence biosensor (ACEA, San Diego, CA). The biosensor measured simultaneously the impedance of every well. The change in impedance for a particular well is proportional to the number of cells and type of attachment the cells have with the impedance microplate. Changes in impedance indicate a response to activation of these small cell populations. Coatings: The 96-E-Plate were wells were coated with fibronectin and or collagen. Collagen is purchased from Advanced BioMatrix (Carlsbad, CA) and fibronectin from Sigma-Aldrich (St. Louis, MO). Tissue and cell samples: Five different samples of human cells from breast tumors (R131, R39, R36, R20, R82) and two different samples of human cells from non-small cell lung cancer (NSCLC) tumors were studied (C15 and C23). Any biomarkers that are used to guide selection of targeted therapy are listed in Table 20 for each patient if they were present. Signaling Pathways activator: NRG1, a HER3 agonist, was used to stimulate the HER3 pathway in each of the five breast cancer cell samples. The EC90 and EC10 concentrations of the signaling pathway activator agent were also derived for each breast cancer sample.\n(§2) In each of the two NSCLC cell samples, four different activating agents were used to stimulate either the EGF or HER3 pathways. The EC90 and EC10 concentrations of the signaling pathway activator agent were also derived for each NSCLC cell sample.\n(§3) Other Reagents: Standard media antibiotics (e.g. penicillin, streptomycin) and other buffers were purchased and used as delivered from ATCC (Manassas, VA, USA) or Life Technologies (Grand Island, NY). Procedure: For each test of a patient cell sample with two different concentrations of signaling pathway activator, six wells were seeded with approximately 15,000 cells in 120 uL culture media. […] The impedance recording of attachment and adhesion change was performed at 37° C., 5% CO2. Data was recorded on a continuous basis throughout the test, where the data presented is from the initial baseline level of cell attachment compared to the subsequent effects following the additions of two concentrations of the signaling pathway activator agent on the 12 different patient samples. Results:\n(§4) For each patient cell sample tested, output values were calculated for the signaling pathway activity measured after addition of the two different concentrations of the signaling pathway activator agent. To determine the sensitivity of the signaling pathway to the signaling pathway activator agent, the sensitivity was calculated using the two output values. When the ratio of the EC90 to EC10 is less than 81, the pathway is considered to be ultra-sensitive; otherwise the pathway is considered to be normally sensitive."}, "HER3 pathway": {"test_system": "HER3 pathway", "experiment": "Pathway ultrasensitivity test (EC90/EC10 of activator agent), impedance biosensor", "format": "cell-based, human", "settings": "for EC90: read-out: EC90 Concentration", "source_text": "as §1, §2, §3, §4"}, "[1]": {"settings": "NSCLC cell sample C15, EGF pathway"}, "[2]": {"settings": "NSCLC cell sample C23, EGF pathway"}, "[3]": {"settings": "NSCLC cell sample C23, HER3 pathway"}}, "note": "Read-outs that look alike come from different tables or passages of the source."}
{"substance": "Amphiregulin", "values": [{"measurement": "Pathway Sensitivity Status (normal or ultra)", "setting": "EGF pathway; [1]", "result": "Ultra (When the ratio of the EC90 to EC10 is less than 81, the pathway is considered to be ultra-sensitive)"}, {"measurement": "Sensitivity Calculation Result (ratio of the EC90 to EC10 of activating agent)", "setting": "EGF pathway; [1]", "result": 65.65}, {"measurement": "EC10 Concentration", "setting": "EGF pathway; NSCLC tumor cell sample C15", "result": 45.7, "unit": "pM"}, {"measurement": "EC90", "setting": "EGF pathway; NSCLC tumor cell sample C15", "result": 3000, "unit": "pM"}]}
{"substance": "Betacellulin", "values": [{"measurement": "Pathway Sensitivity Status (normal or ultra)", "setting": "EGF pathway; [1]", "result": "Ultra (When the ratio of the EC90 to EC10 is less than 81, the pathway is considered to be ultra-sensitive)"}, {"measurement": "Sensitivity Calculation Result (ratio of the EC90 to EC10 of activating agent)", "setting": "EGF pathway; [1]", "result": 41.67}, {"measurement": "Pathway Sensitivity Status (normal or ultra)", "setting": "EGF pathway; [2]", "result": "Ultra (When the ratio of the EC90 to EC10 is less than 81, the pathway is considered to be ultra-sensitive)"}, {"measurement": "Sensitivity Calculation Result (ratio of the EC90 to EC10 of activating agent)", "setting": "EGF pathway; [2]", "result": 29.39}, {"measurement": "EC10 Concentration", "setting": "EGF pathway; NSCLC tumor cell sample C15", "result": 2.4, "unit": "pM"}, {"measurement": "EC90", "setting": "EGF pathway; NSCLC tumor cell sample C15", "result": 100, "unit": "pM"}, {"measurement": "EC10 Concentration", "setting": "EGF pathway; NSCLC tumor cell sample C23", "result": 6.6, "unit": "pM"}, {"measurement": "EC90", "setting": "EGF pathway; NSCLC tumor cell sample C23", "result": 194, "unit": "pM"}]}
{"substance": "HB-EGF", "values": [{"measurement": "Pathway Sensitivity Status (normal or ultra)", "setting": "EGF pathway; [1]", "result": "Ultra (When the ratio of the EC90 to EC10 is less than 81, the pathway is considered to be ultra-sensitive)"}, {"measurement": "Sensitivity Calculation Result (ratio of the EC90 to EC10 of activating agent)", "setting": "EGF pathway; [1]", "result": 63.75}, {"measurement": "Pathway Sensitivity Status (normal or ultra)", "setting": "EGF pathway; [2]", "result": "Ultra (When the ratio of the EC90 to EC10 is less than 81, the pathway is considered to be ultra-sensitive)"}, {"measurement": "Sensitivity Calculation Result (ratio of the EC90 to EC10 of activating agent)", "setting": "EGF pathway; [2]", "result": 66.67}, {"measurement": "EC10 Concentration", "setting": "EGF pathway; NSCLC tumor cell sample C15", "result": 1.6, "unit": "pM"}, {"measurement": "EC90", "setting": "EGF pathway; NSCLC tumor cell sample C15", "result": 102, "unit": "pM"}, {"measurement": "EC10 Concentration", "setting": "EGF pathway; NSCLC tumor cell sample C23", "result": 3.0, "unit": "pM"}, {"measurement": "EC90", "setting": "EGF pathway; NSCLC tumor cell sample C23", "result": 200, "unit": "pM"}]}
{"substance": "NRG1", "values": [{"measurement": "Pathway Sensitivity Status (normal or ultra)", "setting": "HER3 pathway; [3]", "result": "Ultra (When the ratio of the EC90 to EC10 is less than 81, the pathway is considered to be ultra-sensitive)"}, {"measurement": "Sensitivity Calculation Result (ratio of the EC90 to EC10 of activating agent)", "setting": "HER3 pathway; [3]", "result": 11.19}, {"measurement": "EC10 Concentration", "setting": "HER3 pathway; NSCLC tumor cell sample C23", "result": 399, "unit": "pM"}, {"measurement": "EC90", "setting": "HER3 pathway; NSCLC tumor cell sample C23", "result": 4460, "unit": "pM"}, {"measurement": "EC10 Concentration", "setting": "HER3 pathway; breast tumor cell sample R20", "result": 236, "unit": "pM"}, {"measurement": "Pathway Sensitivity Status (normal or ultra)", "setting": "HER3 pathway; breast tumor cell sample R20", "result": "Ultra (When the ratio of the EC90 to EC10 is less than 81, the pathway is considered to be ultra-sensitive)"}, {"measurement": "Sensitivity Calculation Result (EC90/EC10 ratio)", "setting": "HER3 pathway; breast tumor cell sample R20", "result": 18.44}, {"measurement": "EC90", "setting": "HER3 pathway; breast tumor cell sample R20", "result": 2140, "unit": "pM"}, {"measurement": "EC10 Concentration", "setting": "HER3 pathway; breast tumor cell sample R36", "result": 215, "unit": "pM"}, {"measurement": "Pathway Sensitivity Status (normal or ultra)", "setting": "HER3 pathway; breast tumor cell sample R36", "result": "Ultra (When the ratio of the EC90 to EC10 is less than 81, the pathway is considered to be ultra-sensitive)"}, {"measurement": "Sensitivity Calculation Result (EC90/EC10 ratio)", "setting": "HER3 pathway; breast tumor cell sample R36", "result": 27.61}, {"measurement": "EC90", "setting": "HER3 pathway; breast tumor cell sample R36", "result": 1960, "unit": "pM"}, {"measurement": "EC10 Concentration", "setting": "HER3 pathway; breast tumor cell sample R39", "result": 173, "unit": "pM"}, {"measurement": "Pathway Sensitivity Status (normal or ultra)", "setting": "HER3 pathway; breast tumor cell sample R39", "result": "Ultra (When the ratio of the EC90 to EC10 is less than 81, the pathway is considered to be ultra-sensitive)"}, {"measurement": "Sensitivity Calculation Result (EC90/EC10 ratio)", "setting": "HER3 pathway; breast tumor cell sample R39", "result": 45.96}, {"measurement": "EC90", "setting": "HER3 pathway; breast tumor cell sample R39", "result": 1600, "unit": "pM"}, {"measurement": "EC10 Concentration", "setting": "HER3 pathway; breast tumor cell sample R82", "result": 193, "unit": "pM"}, {"measurement": "Pathway Sensitivity Status (normal or ultra)", "setting": "HER3 pathway; breast tumor cell sample R82", "result": "Normal (otherwise the pathway is considered to be normally sensitive)"}, {"measurement": "Sensitivity Calculation Result (EC90/EC10 ratio)", "setting": "HER3 pathway; breast tumor cell sample R82", "result": 95.1}, {"measurement": "EC90", "setting": "HER3 pathway; breast tumor cell sample R82", "result": 1790, "unit": "pM"}, {"measurement": "EC10 Concentration", "setting": "HER3 pathway; breast tumor cell sample R131", "result": 133, "unit": "pM"}, {"measurement": "Pathway Sensitivity Status (normal or ultra)", "setting": "HER3 pathway; breast tumor cell sample R131", "result": "Ultra (When the ratio of the EC90 to EC10 is less than 81, the pathway is considered to be ultra-sensitive)"}, {"measurement": "Sensitivity Calculation Result (EC90/EC10 ratio)", "setting": "HER3 pathway; breast tumor cell sample R131", "result": 38.32}, {"measurement": "EC90", "setting": "HER3 pathway; breast tumor cell sample R131", "result": 1230, "unit": "pM"}]}
{"substance": "TGF alpha", "values": [{"measurement": "Pathway Sensitivity Status (normal or ultra)", "setting": "EGF pathway; [1]", "result": "Ultra (When the ratio of the EC90 to EC10 is less than 81, the pathway is considered to be ultra-sensitive)"}, {"measurement": "Sensitivity Calculation Result (ratio of the EC90 to EC10 of activating agent)", "setting": "EGF pathway; [1]", "result": 44.15}, {"measurement": "Pathway Sensitivity Status (normal or ultra)", "setting": "EGF pathway; [2]", "result": "Ultra (When the ratio of the EC90 to EC10 is less than 81, the pathway is considered to be ultra-sensitive)"}, {"measurement": "Sensitivity Calculation Result (ratio of the EC90 to EC10 of activating agent)", "setting": "EGF pathway; [2]", "result": 21.25}, {"measurement": "EC10 Concentration", "setting": "EGF pathway; NSCLC tumor cell sample C15", "result": 8.2, "unit": "pM"}, {"measurement": "EC90", "setting": "EGF pathway; NSCLC tumor cell sample C15", "result": 362, "unit": "pM"}, {"measurement": "EC10 Concentration", "setting": "EGF pathway; NSCLC tumor cell sample C23", "result": 8.8, "unit": "pM"}, {"measurement": "EC90", "setting": "EGF pathway; NSCLC tumor cell sample C23", "result": 187, "unit": "pM"}]}
